Measurements as given in paper PMC7778606, “Development of the phenylpyrazolo[3,4-d]pyrimidine-based, insulin-like growth factor receptor/Src/AXL-targeting small molecule kinase inhibitor” (Theranostics, 2021).

Tests used:
Test in all cases: KINOMEscan competition binding assay
[1] = molecular target: T1, CDK3 (Homo sapiens, UniProt Q00526); conditions: LL6 at 10 μM; read-out: Percent Control
T1 construct: purchased DiscoverX KINOMEscan
Experimental: (§1) Kd values were obtained by KINOMEscan from DiscoverX (San Diego, CA, USA). To briefly summarize, Kd was measured by a competition binding assay that quantitatively measures the ability of a compound to compete with an immobilized ligand. […] Dose response curves of 11 points are obtained for Kd values, which are measured in duplicate. See more details in the cited references [39]-[42] and see also at www.discoverx.com.

[2] = molecular target: T2, IR (Homo sapiens, UniProt P06213)
T2 construct: purchased DiscoverX (KINOMEscan service)
T2 sequence (P06213 28-1382): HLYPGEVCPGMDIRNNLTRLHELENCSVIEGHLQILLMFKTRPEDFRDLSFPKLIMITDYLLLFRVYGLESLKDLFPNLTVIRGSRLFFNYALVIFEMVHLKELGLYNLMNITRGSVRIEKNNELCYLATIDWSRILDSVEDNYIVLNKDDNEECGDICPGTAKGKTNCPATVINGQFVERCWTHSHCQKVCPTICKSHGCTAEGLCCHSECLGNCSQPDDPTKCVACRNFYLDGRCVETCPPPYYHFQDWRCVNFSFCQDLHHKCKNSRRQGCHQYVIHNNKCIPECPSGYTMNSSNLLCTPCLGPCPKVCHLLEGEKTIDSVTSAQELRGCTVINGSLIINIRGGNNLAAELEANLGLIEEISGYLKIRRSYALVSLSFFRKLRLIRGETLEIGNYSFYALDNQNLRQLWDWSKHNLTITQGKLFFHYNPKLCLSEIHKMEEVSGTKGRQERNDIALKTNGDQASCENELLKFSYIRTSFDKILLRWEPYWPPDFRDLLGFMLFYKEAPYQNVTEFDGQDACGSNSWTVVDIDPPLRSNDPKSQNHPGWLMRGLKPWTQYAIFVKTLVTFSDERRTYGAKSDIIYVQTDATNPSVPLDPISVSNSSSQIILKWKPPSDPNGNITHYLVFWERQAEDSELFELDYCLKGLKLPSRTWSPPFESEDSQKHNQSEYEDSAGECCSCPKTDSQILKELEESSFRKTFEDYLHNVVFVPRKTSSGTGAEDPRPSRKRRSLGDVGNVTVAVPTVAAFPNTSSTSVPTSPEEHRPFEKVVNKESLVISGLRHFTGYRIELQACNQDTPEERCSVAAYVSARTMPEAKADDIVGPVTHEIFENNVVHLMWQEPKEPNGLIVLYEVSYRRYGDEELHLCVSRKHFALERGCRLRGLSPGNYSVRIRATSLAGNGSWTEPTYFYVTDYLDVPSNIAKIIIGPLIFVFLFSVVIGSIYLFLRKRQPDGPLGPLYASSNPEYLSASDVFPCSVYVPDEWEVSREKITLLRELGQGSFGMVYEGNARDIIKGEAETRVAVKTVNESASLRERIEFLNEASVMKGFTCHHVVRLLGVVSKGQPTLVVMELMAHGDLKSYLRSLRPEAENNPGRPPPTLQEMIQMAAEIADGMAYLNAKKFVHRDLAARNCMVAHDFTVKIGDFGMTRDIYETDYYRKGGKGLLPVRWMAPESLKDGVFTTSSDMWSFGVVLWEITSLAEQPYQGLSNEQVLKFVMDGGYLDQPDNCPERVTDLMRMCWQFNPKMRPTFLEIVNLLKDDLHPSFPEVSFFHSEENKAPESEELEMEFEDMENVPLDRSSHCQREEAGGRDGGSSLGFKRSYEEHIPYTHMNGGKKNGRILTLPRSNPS
Experimental: as §1

[3] = molecular target: T3, JAK2(JH1domain-catalytic) (Homo sapiens, UniProt O60674); conditions: LL6 at 10 μM; read-out: Percent Control
T3 construct: JAK2(JH1domain-catalytic); purchased DiscoverX KINOMEscan
Experimental: as §1

[4] = molecular target: T4, TRKA (Homo sapiens, UniProt P04629); conditions: LL6 at 10 μM; read-out: Percent Control
T4 construct: purchased DiscoverX KINOMEscan
Experimental: as §1

[5] = molecular target: T5, JNK1 (Homo sapiens, UniProt P45983); conditions: LL6 at 10 μM; read-out: Percent Control
T5 construct: purchased DiscoverX KINOMEscan
Experimental: as §1

[6] = molecular target: T6, RSK2(Kin.Dom.1-N-terminal) (Homo sapiens, UniProt P51812); conditions: LL6 at 10 μM; read-out: Percent Control
T6 construct: RSK2(Kin.Dom.1-N-terminal); purchased DiscoverX KINOMEscan
Experimental: as §1

[7] = molecular target: T7, MEK1 (Homo sapiens, UniProt Q02750); conditions: LL6 at 10 μM; read-out: Percent Control
T7 construct: purchased DiscoverX KINOMEscan
Experimental: as §1

[8] = molecular target: T8, MEK2 (Homo sapiens, UniProt P36507); conditions: LL6 at 10 μM; read-out: Percent Control
T8 construct: purchased DiscoverX KINOMEscan
Experimental: as §1

[9] = molecular target: T9, CDK2 (Homo sapiens, UniProt P24941); conditions: LL6 at 10 μM; read-out: Percent Control
T9 construct: purchased DiscoverX KINOMEscan
Experimental: as §1

[10] = molecular target: T10, CDK9 (Homo sapiens, UniProt P50750); conditions: LL6 at 10 μM; read-out: Percent Control
T10 construct: purchased DiscoverX KINOMEscan
Experimental: as §1

[11] = molecular target: T11, IKK-alpha (Homo sapiens, UniProt O15111); conditions: LL6 at 10 μM; read-out: Percent Control
T11 construct: purchased DiscoverX KINOMEscan
T11 sequence (O15111 whole entry): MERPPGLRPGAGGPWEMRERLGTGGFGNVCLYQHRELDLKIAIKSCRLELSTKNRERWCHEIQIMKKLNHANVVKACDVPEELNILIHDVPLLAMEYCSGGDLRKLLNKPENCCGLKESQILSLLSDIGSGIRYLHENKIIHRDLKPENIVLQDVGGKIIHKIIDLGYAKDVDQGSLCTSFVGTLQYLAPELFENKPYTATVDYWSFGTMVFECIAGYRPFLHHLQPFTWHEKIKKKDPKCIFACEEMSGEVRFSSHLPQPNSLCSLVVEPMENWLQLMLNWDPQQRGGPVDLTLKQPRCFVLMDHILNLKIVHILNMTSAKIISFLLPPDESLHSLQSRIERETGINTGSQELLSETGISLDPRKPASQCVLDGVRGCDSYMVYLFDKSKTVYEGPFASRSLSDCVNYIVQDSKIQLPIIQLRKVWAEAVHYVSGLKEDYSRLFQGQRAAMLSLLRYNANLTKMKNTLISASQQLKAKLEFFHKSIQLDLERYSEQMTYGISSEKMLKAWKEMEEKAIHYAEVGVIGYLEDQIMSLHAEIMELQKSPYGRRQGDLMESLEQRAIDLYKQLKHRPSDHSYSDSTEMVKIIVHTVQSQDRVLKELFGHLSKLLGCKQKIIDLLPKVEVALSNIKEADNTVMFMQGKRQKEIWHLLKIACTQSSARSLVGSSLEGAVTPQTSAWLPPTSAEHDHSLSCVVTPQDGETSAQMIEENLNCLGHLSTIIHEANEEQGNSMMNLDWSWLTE
Experimental: as §1

[12] = molecular target: T12, LKB1 (Homo sapiens, UniProt Q15831); conditions: LL6 at 10 μM; read-out: Percent Control
T12 construct: purchased DiscoverX KINOMEscan
T12 sequence (Q15831 whole entry): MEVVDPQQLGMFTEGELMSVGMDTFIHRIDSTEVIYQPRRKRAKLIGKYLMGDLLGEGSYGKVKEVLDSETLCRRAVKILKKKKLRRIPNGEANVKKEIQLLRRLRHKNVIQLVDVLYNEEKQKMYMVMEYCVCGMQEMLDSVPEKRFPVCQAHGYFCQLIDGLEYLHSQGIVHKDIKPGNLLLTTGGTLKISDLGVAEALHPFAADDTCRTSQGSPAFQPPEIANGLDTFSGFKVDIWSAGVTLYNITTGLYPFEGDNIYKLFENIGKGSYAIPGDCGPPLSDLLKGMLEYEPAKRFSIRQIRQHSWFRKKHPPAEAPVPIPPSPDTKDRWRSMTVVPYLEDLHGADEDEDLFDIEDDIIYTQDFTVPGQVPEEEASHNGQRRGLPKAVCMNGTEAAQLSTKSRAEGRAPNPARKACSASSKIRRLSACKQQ
Experimental: as §1

[13] = molecular target: T13, BMPR2 (Homo sapiens, UniProt Q13873); conditions: LL6 at 10 μM; read-out: Percent Control
T13 construct: purchased DiscoverX KINOMEscan
Experimental: as §1

[14] = molecular target: T14, RET (Homo sapiens, UniProt P07949); conditions: LL6 at 10 μM; read-out: Percent Control
T14 construct: purchased DiscoverX KINOMEscan
Experimental: as §1

[15] = molecular target: T15, VEGFR2 (Homo sapiens, UniProt P35968); conditions: LL6 at 10 μM; read-out: Percent Control
T15 construct: purchased DiscoverX KINOMEscan
Experimental: as §1

[16] = molecular target: T16, RIOK2 (Homo sapiens, UniProt Q9BVS4); conditions: LL6 at 10 μM; read-out: Percent Control
T16 construct: purchased DiscoverX KINOMEscan
Experimental: as §1

[17] = molecular target: T17, CDK11 (Homo sapiens, UniProt Q9BWU1); conditions: LL6 at 10 μM; read-out: Percent Control
T17 construct: purchased DiscoverX KINOMEscan
Experimental: as §1

[18] = molecular target: T18, SNARK (Homo sapiens, UniProt Q9H093); conditions: LL6 at 10 μM; read-out: Percent Control
T18 construct: purchased DiscoverX KINOMEscan
Experimental: as §1

[19] = molecular target: T19, TSSK1B (Homo sapiens, UniProt Q9BXA7); conditions: LL6 at 10 μM; read-out: Percent Control
T19 construct: purchased DiscoverX KINOMEscan
Experimental: as §1

[20] = molecular target: T20, TGFBR1 (Homo sapiens, UniProt P36897); conditions: LL6 at 10 μM; read-out: Percent Control
T20 construct: purchased DiscoverX KINOMEscan
Experimental: as §1

[21] = molecular target: T21, PRKCE (Homo sapiens, UniProt Q02156); conditions: LL6 at 10 μM; read-out: Percent Control
T21 construct: purchased DiscoverX KINOMEscan
Experimental: as §1

[22] = molecular target: T22, EGFR(L858R) (Homo sapiens, UniProt P00533, L858R); conditions: LL6 at 10 μM; read-out: Percent Control
T22 construct: purchased DiscoverX KINOMEscan
Experimental: as §1

[23] = molecular target: T23, ZAP70 (Homo sapiens, UniProt P43403); conditions: LL6 at 10 μM; read-out: Percent Control
T23 construct: purchased DiscoverX KINOMEscan
Experimental: as §1

[24] = molecular target: T24, KIT(V559D,T670I) (Homo sapiens, UniProt P10721, T670I/V559D); conditions: LL6 at 10 μM; read-out: Percent Control
T24 construct: purchased DiscoverX KINOMEscan
Experimental: as §1

[25] = molecular target: T25, PDGFRA (Homo sapiens, UniProt P16234); conditions: LL6 at 10 μM; read-out: Percent Control
T25 construct: purchased DiscoverX KINOMEscan
Experimental: as §1

[26] = molecular target: T26, MET (Homo sapiens, UniProt P08581); conditions: LL6 at 10 μM; read-out: Percent Control
T26 construct: purchased DiscoverX KINOMEscan
Experimental: as §1

[27] = molecular target: T27, MKNK2 (Homo sapiens, UniProt Q9HBH9); conditions: LL6 at 10 μM; read-out: Percent Control
T27 construct: purchased DiscoverX KINOMEscan
Experimental: as §1

[28] = molecular target: T28, SRPK3 (Homo sapiens, UniProt Q9UPE1); conditions: LL6 at 10 μM; read-out: Percent Control
T28 construct: purchased DiscoverX KINOMEscan
Experimental: as §1

[29] = molecular target: T29, PIM2 (Homo sapiens, UniProt Q9P1W9); conditions: LL6 at 10 μM; read-out: Percent Control
T29 construct: purchased DiscoverX KINOMEscan
Experimental: as §1

[30] = molecular target: T30, FGFR3 (Homo sapiens, UniProt P22607); conditions: LL6 at 10 μM; read-out: Percent Control
T30 construct: purchased DiscoverX KINOMEscan
Experimental: as §1

[31] = molecular target: T31, PCTK1 (Homo sapiens, UniProt Q00536); conditions: LL6 at 10 μM; read-out: Percent Control
T31 construct: purchased DiscoverX KINOMEscan
T31 sequence (Q00536 whole entry): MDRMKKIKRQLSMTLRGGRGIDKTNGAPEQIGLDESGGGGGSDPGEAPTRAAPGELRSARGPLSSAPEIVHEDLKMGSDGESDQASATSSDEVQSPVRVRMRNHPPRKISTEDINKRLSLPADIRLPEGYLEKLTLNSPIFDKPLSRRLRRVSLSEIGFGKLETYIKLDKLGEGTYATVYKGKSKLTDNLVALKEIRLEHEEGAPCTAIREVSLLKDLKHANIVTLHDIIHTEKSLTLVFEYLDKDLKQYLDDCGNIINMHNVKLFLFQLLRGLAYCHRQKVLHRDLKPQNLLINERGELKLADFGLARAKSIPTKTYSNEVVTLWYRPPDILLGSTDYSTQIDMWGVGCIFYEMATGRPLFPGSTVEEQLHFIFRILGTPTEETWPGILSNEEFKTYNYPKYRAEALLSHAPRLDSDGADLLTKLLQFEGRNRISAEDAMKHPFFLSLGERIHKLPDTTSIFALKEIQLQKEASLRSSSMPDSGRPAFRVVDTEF
Experimental: as §1

[32] = molecular target: T32, FGFR2 (Homo sapiens, UniProt P21802); conditions: LL6 at 10 μM; read-out: Percent Control
T32 construct: purchased DiscoverX KINOMEscan
Experimental: as §1

[33] = molecular target: T33, PLK3 (Homo sapiens, UniProt Q9H4B4); conditions: LL6 at 10 μM; read-out: Percent Control
T33 construct: purchased DiscoverX KINOMEscan
Experimental: as §1

[34] = molecular target: T34, ERBB2 (Homo sapiens, UniProt P04626); conditions: LL6 at 10 μM; read-out: Percent Control
T34 construct: purchased DiscoverX KINOMEscan
Experimental: as §1

[35] = molecular target: T35, PIK3CG (Homo sapiens, UniProt P48736); conditions: LL6 at 10 μM; read-out: Percent Control
T35 construct: purchased DiscoverX KINOMEscan
Experimental: as §1

[36] = molecular target: T36, GSK3B (Homo sapiens, UniProt P49841); conditions: LL6 at 10 μM; read-out: Percent Control
T36 construct: purchased DiscoverX KINOMEscan
Experimental: as §1

[37] = molecular target: T37, MARK3 (Homo sapiens, UniProt P27448); conditions: LL6 at 10 μM; read-out: Percent Control
T37 construct: purchased DiscoverX KINOMEscan
T37 sequence (P27448 whole entry): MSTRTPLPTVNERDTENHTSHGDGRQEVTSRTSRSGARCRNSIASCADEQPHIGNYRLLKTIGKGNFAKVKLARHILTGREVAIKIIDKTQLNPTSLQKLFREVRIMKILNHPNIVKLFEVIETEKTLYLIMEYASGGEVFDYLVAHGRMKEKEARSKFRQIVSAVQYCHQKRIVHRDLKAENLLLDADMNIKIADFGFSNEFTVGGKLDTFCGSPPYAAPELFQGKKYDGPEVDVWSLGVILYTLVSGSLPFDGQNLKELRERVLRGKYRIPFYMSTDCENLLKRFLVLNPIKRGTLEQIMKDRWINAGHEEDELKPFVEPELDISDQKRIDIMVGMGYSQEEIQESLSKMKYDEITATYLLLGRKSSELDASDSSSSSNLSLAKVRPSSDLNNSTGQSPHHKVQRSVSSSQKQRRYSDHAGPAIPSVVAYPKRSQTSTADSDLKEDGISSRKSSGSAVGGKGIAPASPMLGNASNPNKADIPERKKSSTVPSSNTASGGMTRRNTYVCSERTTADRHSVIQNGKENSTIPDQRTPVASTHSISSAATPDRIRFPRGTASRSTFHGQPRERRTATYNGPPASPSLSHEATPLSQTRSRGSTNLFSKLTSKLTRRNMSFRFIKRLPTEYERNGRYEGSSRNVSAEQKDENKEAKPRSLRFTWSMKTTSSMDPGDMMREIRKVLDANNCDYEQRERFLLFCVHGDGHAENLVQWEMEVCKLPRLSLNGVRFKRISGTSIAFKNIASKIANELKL
Experimental: as §1

[38] = molecular target: T38, BTK (Homo sapiens, UniProt Q06187); conditions: LL6 at 10 μM; read-out: Percent Control
T38 construct: purchased DiscoverX KINOMEscan
Experimental: as §1

[39] = molecular target: T39, PDGFRB (Homo sapiens, UniProt P09619)
T39 construct: purchased DiscoverX KINOMEscan
T39 sequence (P09619 33-1106): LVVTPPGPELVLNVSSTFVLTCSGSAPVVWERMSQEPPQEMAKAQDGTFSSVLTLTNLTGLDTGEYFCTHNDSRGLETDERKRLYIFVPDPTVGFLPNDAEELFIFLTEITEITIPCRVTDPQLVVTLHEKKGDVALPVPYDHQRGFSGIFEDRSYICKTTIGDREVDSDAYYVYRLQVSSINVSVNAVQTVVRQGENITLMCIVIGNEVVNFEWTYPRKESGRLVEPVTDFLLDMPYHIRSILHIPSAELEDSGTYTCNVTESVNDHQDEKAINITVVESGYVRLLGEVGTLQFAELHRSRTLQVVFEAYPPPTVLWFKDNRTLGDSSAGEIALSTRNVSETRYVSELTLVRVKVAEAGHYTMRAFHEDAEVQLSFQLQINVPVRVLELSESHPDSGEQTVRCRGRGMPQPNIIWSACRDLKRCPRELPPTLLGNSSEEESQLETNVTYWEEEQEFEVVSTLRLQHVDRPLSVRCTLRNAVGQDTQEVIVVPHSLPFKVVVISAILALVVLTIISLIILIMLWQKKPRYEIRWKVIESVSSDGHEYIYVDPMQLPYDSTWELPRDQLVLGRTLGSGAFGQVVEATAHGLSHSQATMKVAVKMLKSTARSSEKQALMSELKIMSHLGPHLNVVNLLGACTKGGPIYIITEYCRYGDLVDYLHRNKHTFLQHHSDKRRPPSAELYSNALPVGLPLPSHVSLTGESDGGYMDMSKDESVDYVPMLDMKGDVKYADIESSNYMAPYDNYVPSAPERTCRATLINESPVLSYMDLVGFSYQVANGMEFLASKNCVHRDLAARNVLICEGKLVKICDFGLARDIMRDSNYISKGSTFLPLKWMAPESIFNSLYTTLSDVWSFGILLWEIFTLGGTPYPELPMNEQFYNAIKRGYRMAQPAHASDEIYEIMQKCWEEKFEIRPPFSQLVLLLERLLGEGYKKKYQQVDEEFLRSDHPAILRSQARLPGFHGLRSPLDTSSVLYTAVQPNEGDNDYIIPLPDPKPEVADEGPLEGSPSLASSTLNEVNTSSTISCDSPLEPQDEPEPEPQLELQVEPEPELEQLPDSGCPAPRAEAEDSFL
Experimental: as §1

[40] = molecular target: T40, JNK2 (Homo sapiens, UniProt P45984); conditions: LL6 at 10 μM; read-out: Percent Control
T40 construct: purchased DiscoverX KINOMEscan
Experimental: as §1

[41] = LL6 at 10 μM, read-out: Percent Control

remaining binding at 10 µM [1]: 97%
Kd ([2]; IR, 11-point dose response, duplicate): not accurately measurable
inhibition at 10 µM ([2]; IR, LL6 at 10 µM): > 65%
remaining binding at 10 µM [2, 41]: 35%
remaining binding at 10 µM [3]: 100%
remaining binding at 10 µM [4]: 100%
remaining binding at 10 µM [5]: 100%
remaining binding at 10 µM [6]: 25%
remaining binding at 10 µM [7]: 65%
remaining binding at 10 µM [8]: 95%
remaining binding at 10 µM [9]: 99%
remaining binding at 10 µM [10]: 100%
remaining binding at 10 µM [11]: 100%
remaining binding at 10 µM [12]: 90%
remaining binding at 10 µM [13]: 40%
remaining binding at 10 µM [14]: 81%
remaining binding at 10 µM [15]: 65%
remaining binding at 10 µM [16]: 100%
remaining binding at 10 µM [17]: 13%
remaining binding at 10 µM [18]: 100%
remaining binding at 10 µM [19]: 100%
remaining binding at 10 µM [20]: 46%
remaining binding at 10 µM [21]: 100%
remaining binding at 10 µM [22]: 88%
remaining binding at 10 µM [23]: 100%
remaining binding at 10 µM [24]: 80%
remaining binding at 10 µM [25]: 64%
remaining binding at 10 µM [26]: 75%
remaining binding at 10 µM [27]: 89%
remaining binding at 10 µM [28]: 84%
remaining binding at 10 µM [29]: 100%
remaining binding at 10 µM [30]: 89%
remaining binding at 10 µM [31]: 78%
remaining binding at 10 µM [32]: 62%
remaining binding at 10 µM [33]: 90%
remaining binding at 10 µM [34]: 100%
remaining binding at 10 µM [35]: 63%
remaining binding at 10 µM [36]: 67%
remaining binding at 10 µM [37]: 100%
remaining binding at 10 µM [38]: 100%
remaining binding at 10 µM [39, 41]: 5%
inhibition at 10 µM ([39]; PDGFRB, LL6 at 10 µM): > 65%
remaining binding at 10 µM [40]: 67%
Structure (SMILES): Nc1ncnc2c1c(-c1ccc(Cl)cc1)nn2CCn1cc(COc2ccc(Nc3nccc(Nc4cnc5ccccc5c4)n3)cc2)nn1 [LL6]
